Results on 12 molecules are retold here after ChEMBL document CHEMBL3875219, “Hetero-Diels-Alder approach to Bis(indolyl)methanes” (Bioorg Med Chem, 2017).

The nature of series [1]: Cytotoxicity against human U937 cells assessed as reduction in cell viability after 72 hrs by MTT assay. The class given is functional, cell-based. The note with it: U-937, 72 h. A general note: Tetrazolium assays rely on reduction of a dye to a coloured formazan, in cell work by metabolically active cells.
Series [2] is described as follows: Cytotoxicity against human THP1 cells assessed as reduction in cell viability after 72 hrs by MTT assay. The note with it: THP-1, 72 h. In kind it is functional, cell-based.
Series [3] is described as follows: Cytotoxicity against mouse EL4 cells assessed as reduction in cell viability after 72 hrs by MTT assay. The note with it: EL4, 72 h. In kind it is functional, cell-based.
Series [4] has as its system EL4. As to the kind of experiment: Selectivity index, ratio of IC50 for mouse S17 cells to IC50 for mouse EL4 cells. The class given is functional.
Series [5] has as its system THP-1. The series can be described thus: Selectivity index, ratio of IC50 for mouse S17 cells to IC50 for human THP1 cells. The class given is functional.
Series [6] in a line: (§1) Cytotoxicity against mouse S17 cells assessed as reduction in cell viability after 72 hrs by MTT assay. In kind it is toxicity, cell-based. Particulars: mouse, S17 cells.
The subject of series [7] is U-937. As to the kind of experiment: Selectivity index, ratio of IC50 for mouse S17 cells to IC50 for human U937 cells. The class given is functional.
Series [8] can be described thus: Cytotoxicity against human U937 cells assessed as cell viability at 100 uM after 72 hrs by MTT assay relative to control. The class given is functional. Particulars: U-937, 72 h, read-out: Activity.
Series [9] in a line: Cytotoxicity against mouse S17 cells assessed as cell viability at 100 uM after 72 hrs by MTT assay relative to control. The class given is toxicity. Particulars: read-out: Activity.
Series [10] is filed under the species Mus musculus. The series is described as §1. In kind it is toxicity, cell-based. The note with it: s17.

A value given as a limit tells only on which side of the number the result lay.

For the molecule `C/C(=N/NC(=O)OC(C)(C)C)C(c1c[nH]c2ccc(Br)cc12)c1c[nH]c2ccc(Br)cc12`, the half-maximal inhibitory concentration (IC50) in series [1] turned out to be 28.3 µM; in series [2] it was 36.2 µM; in series [3] it was 22.5 µM. Moreover, the “Ratio IC50” value is given as 1.84 in series [4], 1.14 in [5] and 1.46 in series [7]. For the same molecule, in [6], the IC50 at 72 h amounted to 41.3 µM.
In the case of `O/N=C(/c1ccc(Br)cc1)C(c1c[nH]c2ccc(Br)cc12)c1c[nH]c2ccc(Br)cc12`, the figures for the IC50 in series [1], in series [2] and in [3] were 18.6 µM, 12.2 µM and 7.65 µM, respectively.
Regarding `O/N=C(/c1ccc(Br)cc1)C(c1c[nH]c2ccc(O)cc12)c1c[nH]c2ccc(O)cc12`, the figures for the IC50 in [1], in [2] and in series [3] were 12.8 µM, 15.5 µM and 15.6 µM, respectively. The results for the “Ratio IC50” value in [4], in series [5] and in [7] were 1.4, 1.41 and 1.71, respectively. Besides, the IC50 at 72 h in series [6] came to 21.9 µM.
As to `C/C(=N/Nc1ccc([N+](=O)[O-])cc1[N+](=O)[O-])C(c1c[nH]c2ccccc12)c1c[nH]c2ccccc12`, the IC50 in [1] came out at 13.3 µM; in [2], 14 µM; in series [3], 5.45 µM. Besides, the “Ratio IC50” value in [4] is listed as 1.45; in series [5], less than 1; in series [7] it was less than 1. Also, the IC50 at 72 h in series [6] is 7.92 µM.
As for `C/C(=N/NS(=O)(=O)c1ccc(C)cc1)C(c1c[nH]c2ccccc12)c1c[nH]c2ccccc12`, the IC50 in series [1] came to 22.9 µM; in [2] it was 23.5 µM; in [3], 18.9 µM. Moreover, the “Ratio IC50” value in series [4] was found to be 1.32; in [5], 1.06; in series [7], 1.09. The IC50 at 72 h in series [6] stood at 25 µM.
For the molecule `Cc1ccc2[nH]cc(C(/C(=N\O)c3ccc(Br)cc3)c3c[nH]c4ccc(C)cc34)c2c1`, the IC50 in series [1] came to 9.79 µM; in series [2], 6.34 µM; in [3] it was 3.23 µM. The figures for the “Ratio IC50” value in [4], in series [5] and in series [7] were 3.56, 1.81 and 1.17, respectively. Also, in series [6], the half-maximal inhibitory concentration (IC50) at 72 h came to 11.5 µM.
For `C/C(=N/NC(=O)OC(C)(C)C)C(c1cn(Cc2ccccc2)c2ccccc12)c1cn(Cc2ccccc2)c2ccccc12`, the IC50 in series [2] was 38.8 µM; in [3] it was 5.56 µM. For the same molecule, the “Ratio IC50” value in series [4] is 1.38; in series [5] it was less than 1; in [7], less than 1. The viability at 100 µM in series [8] was 66.6%. Besides, the IC50 at 72 h in series [6] stood at 7.65 µM.
Take `COc1cc([C@@H]2c3cc4c(cc3[C@@H](O[C@@H]3O[C@@H]5CO[C@@H](C)O[C@H]5[C@H](O)[C@H]3O)[C@H]3COC(=O)[C@H]23)OCO4)cc(OC)c1O` [ETOPOSIDE]: the IC50 in [1] stood at 1.1 µM; in series [2] it was 1.82 µM; in series [3], 4.9 µM. Further, the IC50 at 72 h in series [6] turned out to be 10.4 µM.
Consider `C/C(=N/NC(=O)OC(C)(C)C)C(c1c[nH]c2ccc(O)cc12)c1c[nH]c2ccc(O)cc12`, for which the half-maximal inhibitory concentration (IC50) in series [1] is 157 µM; in series [2], 28.6 µM; in series [3], 15.4 µM; in series [10] it was “Non-Toxic”. In addition, in series [9], the viability at 72 h, 100 µM is 48.4%. Moreover, the “Ratio IC50” value in series [4] is recorded as 6.49; in series [5], 3.5; in [7] it was less than 1.
On to `C/C(=N/NC(=O)OC(C)(C)C)C(c1c[nH]c2ccccc12)c1c[nH]c2ccccc12`, for which the half-maximal inhibitory concentration (IC50) in [1] stood at 25 µM; in series [2], 30 µM; in series [3], 15.3 µM. Also, the results for the “Ratio IC50” value in series [4], in [5] and in [7] were 3.27, 1.67 and 2, respectively. The IC50 at 72 h in series [6] came out at 50 µM.
`C/C(=N/NC(=O)OC(C)(C)C)C(c1cn(C)c2ccccc12)c1cn(C)c2ccccc12`: the values for the half-inhibitory concentration (IC50) in series [1], in series [2] and in series [3] were 14.2 µM, 25.3 µM and 9.99 µM, respectively.
Take `COc1ccc2[nH]cc(C(/C(=N\O)c3ccc(Br)cc3)c3c[nH]c4ccc(OC)cc34)c2c1`: the figures for the half-inhibitory concentration (IC50) in series [1], in [2] and in series [3] were 18.1 µM, 22.6 µM and 9.29 µM, respectively. Further, the “Ratio IC50” value is 1.91 in series [4], less than 1 in [5] and less than 1 in series [7]. For the same molecule, the IC50 at 72 h in series [6] stood at 17.7 µM.

For orientation: IC50 means the concentration that gives 50% inhibition.
